Data as given in ChEMBL document CHEMBL4251700, “Novel Staphyloxanthin Inhibitors with Improved Potency against Multidrug Resistant Staphylococcus aureus” (ACS Med Chem Lett, 2018).
Where a chain is given by its changes, count along the chain named. Calls of active or inactive are those of the source. The rule behind the calls is not given here.

Key:
[1] = molecular target: T1, 4,4'-diapophytoene desaturase (4,4'-diaponeurosporene-forming) (Staphylococcus aureus (strain Newman), UniProt O07855); assay: Inhibition of CrtN in Staphylococcus aureus Newman assessed as reduction in staphyloxanthin levels after 48 hrs by spectrophotometric method-based pigment inhibition assay; set-up: species or system Staphylococcus aureus subsp. aureus str. Newman
T1 sequence (O07855 whole entry): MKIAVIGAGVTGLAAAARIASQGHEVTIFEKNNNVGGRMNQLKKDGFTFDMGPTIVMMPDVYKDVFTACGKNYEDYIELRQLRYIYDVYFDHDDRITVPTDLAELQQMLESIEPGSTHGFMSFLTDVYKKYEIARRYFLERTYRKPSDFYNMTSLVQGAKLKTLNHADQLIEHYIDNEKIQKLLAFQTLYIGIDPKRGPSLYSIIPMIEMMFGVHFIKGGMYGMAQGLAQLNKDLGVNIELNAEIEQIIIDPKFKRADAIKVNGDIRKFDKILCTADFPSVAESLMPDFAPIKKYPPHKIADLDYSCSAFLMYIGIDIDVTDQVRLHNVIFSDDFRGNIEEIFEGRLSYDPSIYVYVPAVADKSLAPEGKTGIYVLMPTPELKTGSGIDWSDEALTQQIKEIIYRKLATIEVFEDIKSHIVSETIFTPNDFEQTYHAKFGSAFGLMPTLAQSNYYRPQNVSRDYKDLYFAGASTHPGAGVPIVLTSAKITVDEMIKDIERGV

[2] = Solubility of the compound in water at 10 mg measured after 24 hrs by HPLC method; format: physicochemical
[3] = molecular target: Voltage-gated inwardly rectifying potassium channel KCNH2 (Homo sapiens, UniProt Q12809); assay: Inhibition of recombinant human ERG expressed in CHO cells at -80 mV holding potential measured after 3 minutes by automated whole cell patch clamp Qpatch method; format: cell-based
Chain of Voltage-gated inwardly rectifying potassium channel KCNH2 (Q12809 whole entry): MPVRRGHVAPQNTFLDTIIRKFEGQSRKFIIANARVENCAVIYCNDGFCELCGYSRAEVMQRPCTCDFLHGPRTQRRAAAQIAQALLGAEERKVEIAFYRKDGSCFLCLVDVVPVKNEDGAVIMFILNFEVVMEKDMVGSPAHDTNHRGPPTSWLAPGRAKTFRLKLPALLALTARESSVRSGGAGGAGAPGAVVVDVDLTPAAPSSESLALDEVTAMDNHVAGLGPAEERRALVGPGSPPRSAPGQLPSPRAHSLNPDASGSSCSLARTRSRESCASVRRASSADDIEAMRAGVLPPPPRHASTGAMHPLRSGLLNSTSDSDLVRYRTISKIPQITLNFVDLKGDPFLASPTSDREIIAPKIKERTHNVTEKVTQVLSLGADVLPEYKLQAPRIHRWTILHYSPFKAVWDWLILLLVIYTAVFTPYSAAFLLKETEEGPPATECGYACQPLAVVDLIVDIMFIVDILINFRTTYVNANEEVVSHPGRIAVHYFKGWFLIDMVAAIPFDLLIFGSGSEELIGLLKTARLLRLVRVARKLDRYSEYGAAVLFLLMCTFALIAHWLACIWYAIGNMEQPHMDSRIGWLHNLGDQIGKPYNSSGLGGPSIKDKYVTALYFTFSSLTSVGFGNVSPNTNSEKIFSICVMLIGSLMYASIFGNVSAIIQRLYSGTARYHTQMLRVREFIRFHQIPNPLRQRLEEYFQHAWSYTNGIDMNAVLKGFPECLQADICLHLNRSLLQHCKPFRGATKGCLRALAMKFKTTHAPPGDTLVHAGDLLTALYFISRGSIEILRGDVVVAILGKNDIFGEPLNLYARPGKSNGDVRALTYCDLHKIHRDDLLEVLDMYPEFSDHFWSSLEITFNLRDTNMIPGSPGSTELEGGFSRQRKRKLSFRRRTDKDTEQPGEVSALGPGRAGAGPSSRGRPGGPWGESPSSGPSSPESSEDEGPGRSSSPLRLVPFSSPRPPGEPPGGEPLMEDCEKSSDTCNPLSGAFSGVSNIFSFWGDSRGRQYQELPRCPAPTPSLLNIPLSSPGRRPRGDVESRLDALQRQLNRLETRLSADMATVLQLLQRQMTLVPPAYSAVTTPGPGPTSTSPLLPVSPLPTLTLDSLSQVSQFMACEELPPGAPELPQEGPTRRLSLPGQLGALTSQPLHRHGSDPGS

[4] = tested on: Staphylococcus aureus; assay: Antibacterial activity against vancomycin-intermediate Staphylococcus aureus Mu50 infected in BALB/c mouse assessed as reduction of bacterial burden in heart at 0.4 mg, ip bid for 3.5 days administered 6 hrs post bacterial infection measured 84 hrs post infection relative to control; format: functional
[5] = tested on: Staphylococcus aureus; assay: Antibacterial activity against vancomycin-intermediate Staphylococcus aureus Mu50 infected in BALB/c mouse assessed as reduction of bacterial burden in liver at 0.4 mg, ip bid administered at 12 hrs prior to bacterial infection dosed at 12 intervals for 4.5 days; format: functional, organism-based
[6] = tested on: Staphylococcus aureus; assay: Antibacterial activity against linezolid-resistant Staphylococcus aureus NRS271 infected in BALB/c mouse assessed as reduction of bacterial burden in liver at 0.1 mg, ip bid administered at 12 hrs prior to bacterial infection dosed at 12 intervals for 4.5 days; format: functional, organism-based
[7] = tested on: Staphylococcus aureus; assay: Antibacterial activity against linezolid-resistant Staphylococcus aureus NRS271 infected in BALB/c mouse assessed as reduction of bacterial burden in liver at 0.4 mg, ip bid administered at 12 hrs prior to bacterial infection dosed at 12 intervals for 4.5 days; format: functional, organism-based
[8] = tested on: Staphylococcus aureus; assay: Antibacterial activity against linezolid-resistant Staphylococcus aureus NRS271 infected in BALB/c mouse assessed as reduction of bacterial burden in heart at 0.4 mg, ip bid administered at 24 hrs prior to bacterial infection dosed at 12 intervals for 4.5 days
[9] = tested on: Staphylococcus aureus; assay: Antibacterial activity against vancomycin-intermediate Staphylococcus aureus Mu50 infected in BALB/c mouse assessed as reduction of bacterial burden in liver at 0.1 mg, ip bid for 3.5 days administered 6 hrs post bacterial infection measured 84 hrs post infection; format: functional, organism-based
[10] = tested on: Staphylococcus aureus; assay: Antibacterial activity against vancomycin-intermediate Staphylococcus aureus Mu50 infected in BALB/c mouse assessed as reduction of bacterial burden in heart at 0.1 mg, ip bid for 3.5 days administered 6 hrs post bacterial infection measured 84 hrs post infection relative to control; format: functional
[11] = tested on: Staphylococcus aureus; assay: Antibacterial activity against vancomycin-intermediate Staphylococcus aureus Mu50 infected in BALB/c mouse assessed as reduction of bacterial burden in liver at 0.1 mg, ip bid administered at 12 hrs prior to bacterial infection dosed at 12 intervals for 4.5 days; format: functional, organism-based
[12] = tested on: Staphylococcus aureus; assay: Antibacterial activity against linezolid-resistant Staphylococcus aureus NRS271 infected in BALB/c mouse assessed as reduction of bacterial burden in heart at 0.1 mg, ip bid administered at 24 hrs prior to bacterial infection dosed at 12 intervals for 4.5 days
[13] = tested on: Staphylococcus aureus; assay: Antibacterial activity against vancomycin-intermediate Staphylococcus aureus Mu50 infected in BALB/c mouse assessed as reduction of bacterial burden in liver at 0.4 mg, ip bid for 3.5 days administered 6 hrs post bacterial infection measured 84 hrs post infection; format: functional, organism-based
[14] = Half life in human liver microsomes at 2 uM by LC-MS/MS analysis; format: ADME, microsome
[15] = molecular target: T2, 4,4'-diapophytoene desaturase (4,4'-diaponeurosporene-forming) (Staphylococcus aureus (strain MW2), UniProt Q8NUQ6); assay: Inhibition of CrtN in methicillin-resistant Staphylococcus aureus LAC USA300 assessed as reduction in staphyloxanthin levels after 48 hrs by spectrophotometric method-based pigment inhibition assay; set-up: species or system Staphylococcus aureus subsp. aureus USA300
T2 sequence (Q8NUQ6 whole entry): T1 sequence (O07855 whole entry) with R500Q

[16] = molecular target: T3, 4,4'-diapophytoene desaturase (4,4'-diaponeurosporene-forming) (Staphylococcus aureus (strain Mu50 / ATCC 700699), UniProt Q99R76); assay: Inhibition of CrtN in vancomycin-intermediate Staphylococcus aureus Mu50 assessed as reduction in staphyloxanthin levels after 48 hrs by spectrophotometric method-based pigment inhibition assay; set-up: species or system Staphylococcus aureus subsp. aureus Mu50
T3 sequence (Q99R76 whole entry): T1 sequence (O07855 whole entry)

[17] = molecular target: T2, 4,4'-diapophytoene desaturase (4,4'-diaponeurosporene-forming); assay: Inhibition of CrtN in methicillin-resistant Staphylococcus aureus USA400 MW2 assessed as reduction in staphyloxanthin levels after 48 hrs by spectrophotometric method-based pigment inhibition assay; set-up: species or system Staphylococcus aureus subsp. aureus MW2
[18] = molecular target: T1, 4,4'-diapophytoene desaturase (4,4'-diaponeurosporene-forming); assay: Inhibition of CrtN in linezolid-resistant Staphylococcus aureus NRS271 assessed as reduction in staphyloxanthin levels after 48 hrs by spectrophotometric method-based pigment inhibition assay
[19] = molecular target: T1, 4,4'-diapophytoene desaturase (4,4'-diaponeurosporene-forming); assay: Inhibition of Staphylococcus aureus Newman […]-tagged CrtN expressed in Escherichia coli BL21(DE3))/pET28a::CrtN assessed as reduction in staphyloxanthin levels using diapophytoene as substrate after overnight incubation; set-up: species or system Staphylococcus aureus subsp. aureus str. Newman

Compound: COc1ccc(/C=C/CN(C)Cc2ccc3c(c2)OCCO3)c(F)c1
- IC50 [1]: 43.5 nM

Compound: CN(C/C=C/c1ccc(C(F)(F)F)cc1F)Cc1ccc2c(c1)OCCO2
- IC50 [1]: 8.8 nM

Compound: Cc1ccc(/C=C/CN(C)Cc2ccc3c(c2)OCCO3)cc1.Cl
- IC50 [1]: 3.2 nM
- solubility at 24 h [2]: 6500 µg/mL
- IC50 [3]: 4600 nM

Compound: CN(C/C=C/c1ccccc1Cl)Cc1ccc2c(c1)OCCO2
- IC50 [1]: 90.3 nM

Compound: COc1ccc(/C=C/CN(C)Cc2ccc3c(c2)OCCO3)cc1F
- IC50 [1]: 57.9 nM

Compound: CN(C/C=C/c1cccc2ccccc12)Cc1ccc2c(c1)OCCO2
- IC50 [1]: > 1000 nM

Compound: CC(=O)NC[C@H]1CN(c2ccc(N3CCOCC3)c(F)c2)C(=O)O1
- Activity [4]: Active
- Activity [5]: Active
- Activity [6]: Active
- Activity [7]: Active
- Activity [8]: Active
- Activity [9]: Active
- Activity [10]: Active
- Activity [11]: Active
- Activity [12]: Active
- Activity [13]: Active

Compound: CN(C/C=C/c1ccc(C(F)(F)F)c(F)c1)Cc1ccc2c(c1)OCCO2
- IC50 [1]: 13.7 nM

Compound: CN[C@H](CC(C)C)C(=O)N[C@H]1C(=O)N[C@@H](CC(N)=O)C(=O)N[C@H]2C(=O)N[C@H]3C(=O)N[C@H](C(=O)N[C@H](C(=O)O)c4cc(O)cc(O)c4-c4cc3ccc4O)[C@H](O)c3ccc(c(Cl)c3)Oc3cc2cc(c3O[C@@H]2O[C@H](CO)[C@@H](O)[C@H](O)[C@H]2O[C@H]2C[C@](C)(N)[C@H](O)[C@H](C)O2)Oc2ccc(cc2Cl)[C@H]1O
- Activity [4]: Active
- Activity [5]: Active
- Activity [9]: Active
- Activity [10]: Active
- Activity [11]: Active
- Activity [13]: Active

Compound: Cc1ncc2n1-c1ccc(Cl)cc1C(c1ccccc1F)=NC2 [MIDAZOLAM]
- half-life at 2 µM [14]: 4.2 min

Compound: CN(C/C=C/c1ccco1)Cc1ccc2c(c1)OCCO2
- IC50 [1]: 228 nM

Compound: CN(C/C=C/c1ccc(F)cc1)Cc1ccc2c(c1)OCCO2
- IC50 [1]: 20.1 nM

Compound: C/C=C/CN(C)Cc1ccc2c(c1)OCCO2
- IC50 [1]: > 1000 nM

Compound: CN(C/C=C/c1ccc(C(F)(F)F)cc1)Cc1ccc2c(c1)OCCO2.Cl
- IC50 [15]: 5.9 nM
- IC50 [1]: 2.9 nM
- IC50 [16]: 1.2 nM
- IC50 [17]: 6.5 nM
- solubility at 24 h [2]: 13500 µg/mL
- IC50 [18]: 1.1 nM
- IC50 [19]: 341 nM

Compound: CN(C/C=C/c1ccc([N+](=O)[O-])cc1)Cc1ccc2c(c1)OCCO2
- IC50 [1]: 18.9 nM

Compound: CN(C/C=C/C1CCCCC1)Cc1ccc2c(c1)OCCO2
- IC50 [1]: > 1000 nM

Compound: COc1ccc(/C=C/CN(C)Cc2ccc3c(c2)CCCCC3)cc1.Cl
- IC50 [15]: 7.7 nM
- IC50 [17]: 7.1 nM
- solubility at 24 h [2]: 4200 µg/mL

Compound: CCOc1ccc(/C=C/CN(C)Cc2ccc3c(c2)OCCO3)cc1
- IC50 [1]: 8.2 nM

Compound: CN(C/C=C/c1cccc(F)c1)Cc1ccc2c(c1)OCCO2
- IC50 [1]: > 1000 nM

Compound: CN(C/C=C/c1cccc(C(F)(F)F)c1)Cc1ccc2c(c1)OCCO2
- IC50 [1]: > 1000 nM

Compound: CN(C/C=C/c1ccccc1F)Cc1ccc2c(c1)OCCO2
- IC50 [1]: > 1000 nM
